The source of these data is US20070248672A1, “Indole and Azaindole Derivatives with Antitumor Action” (priority 2004, published 2007).

Experiment [1] has as its system HT29/Mit human colon carcinoma xenografts. Nature of the experiment: HT29/Mit human colon carcinoma xenograft, antitumor activity. Type of experiment: in vivo, athymic Swiss nude mice. An excerpt:
1.1 Model of HT29/Mit human colon carcinoma xenografts-Antitumor activity Female athymic Swiss nude mice (8-10 weeks old) (Charles River, Calco, Italy) were used for the experiments. The animals were maintained at constant temperature and humidity, and were allowed to eat and drink freely. The experimental protocol was approved by the Ethics Committee for Animal Experimentation of the Istituto Nazionale Tumori of Milan. The antitumour effectiveness of the compounds of the invention under discussion was tested on athymic mouse models implanted with HT29 and/or HT29/Mit tumour cells: this latter variety is highly resistant to topotecan treatment. The tumour cells were implanted in vivo via subcutaneous injection of 10^7 cells taken from in vitro cultures. Randomized groups of five mice with bilateral subcutaneous tumours were used for the experiment. Topotecan or other known antitumour agents (dissolved in distilled water or an appropriate solvent) and the compounds of the invention (dissolved in Cremophor EL: ethanol: saline solution in the proportions 5:5:90, or in an appropriate solvent) were administered orally from the third day, alone or in combination, in agreement with a treatment scheme selected in an appropriate manner depending on the type of compound to be studied. The weight (or volume) of the tumour in treated mice compared to controls is represented graphically on the y-axis against time (x-axis).
Background: A xenograft is tissue or cells of one species grown in another, often human tumour cells in immunodeficient mice.

The target of experiment [2] is Vacuolar ATPase in bovine chromaffin cells membranes (BCG) (Bos taurus, UniProt P23956+Q29466). Nature of the experiment: Vacuolar ATPase inhibition in bovine chromaffin cells membranes (BCG). In kind it is biochemical. To be noted: read-out: ATPase activity (IC50) BCG; bovine chromaffin cell membranes. Here is the method: Inhibition of bafilomycin sensitive ATPase activity is assayed by measuring the release of inorganic phosphate during 30 minutes of incubation, at 37° C., of the human osteoclastoma microsomal fraction in 96-well plates. The reaction medium contains 1 mM ATP, 10 mM Hepes-Tris buffer pH 8, 50 mM KCl, 5 μM valinomycin, 5 μM nigericin, 1 mM CDTA-Tris, 100 μM ammonium molybdate, 0.2 M sucrose and the microsomal fraction (20 μg protein/ml). The reaction is initiated by adding MgSO4 and terminated, after 30 minutes, by adding 4 volumes of the reagent malachite green, prepared according to Chan K., Anal. Biochem. 157, 375-380, 1986.
1.2 Determination of Vacuolar ATpase Inhibition in the Bovine Chromaffin Cells Membranes (BCG)
About 20 adrenal glands (Cidon S., J. Biol. Chem. 258, 2892-2898, 1983) are removed from healthy bovines; the medulla is quickly separated from the cortex, which is discarded. The medulla is homogenised at 4° C. with a suitable medium at pH 7.5, then filtered. The remaining solid material is further homogenised, filtered and recombined with the preceding filtrate, resuspended and centrifuged at 1000 g for 15 minutes; the supernatant obtained is centrifuged at 10000 g for 20 minutes. The resultant pellet is resuspended and stratified through a sucrose gradient formed of a lower part of 15 ml 1.5 M sucrose and an upper part of 10 ml 1.2 M sucrose. After overnight centrifugation at 4° C. with a SW28 rotor at 20000 rpm, the chromaffiln cells sediment into a pellet. This latter is resuspended, centrifuged at 3000 g for 10 minutes, and the supernatant obtained is centrifuged at 200000 g for 60 minutes. The pellet is then resuspended in 4 ml of a suitable medium containing 0.2 μg/ml pepstatin A and 0.4 μg/ml leupeptin and stored under liquid nitrogen.
The method for ATPase inhibition assay is the same as that followed for the osteoclastoma.

Vacuolar ATPase in bovine chromaffin cells membranes (BCG), sequence (P23956 whole entry, looked up): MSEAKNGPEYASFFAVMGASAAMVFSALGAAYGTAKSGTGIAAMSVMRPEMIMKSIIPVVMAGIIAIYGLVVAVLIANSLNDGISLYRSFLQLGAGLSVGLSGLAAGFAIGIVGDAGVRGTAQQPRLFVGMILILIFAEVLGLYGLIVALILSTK
Vacuolar ATPase in bovine chromaffin cells membranes (BCG), sequence (Q29466 whole entry, looked up): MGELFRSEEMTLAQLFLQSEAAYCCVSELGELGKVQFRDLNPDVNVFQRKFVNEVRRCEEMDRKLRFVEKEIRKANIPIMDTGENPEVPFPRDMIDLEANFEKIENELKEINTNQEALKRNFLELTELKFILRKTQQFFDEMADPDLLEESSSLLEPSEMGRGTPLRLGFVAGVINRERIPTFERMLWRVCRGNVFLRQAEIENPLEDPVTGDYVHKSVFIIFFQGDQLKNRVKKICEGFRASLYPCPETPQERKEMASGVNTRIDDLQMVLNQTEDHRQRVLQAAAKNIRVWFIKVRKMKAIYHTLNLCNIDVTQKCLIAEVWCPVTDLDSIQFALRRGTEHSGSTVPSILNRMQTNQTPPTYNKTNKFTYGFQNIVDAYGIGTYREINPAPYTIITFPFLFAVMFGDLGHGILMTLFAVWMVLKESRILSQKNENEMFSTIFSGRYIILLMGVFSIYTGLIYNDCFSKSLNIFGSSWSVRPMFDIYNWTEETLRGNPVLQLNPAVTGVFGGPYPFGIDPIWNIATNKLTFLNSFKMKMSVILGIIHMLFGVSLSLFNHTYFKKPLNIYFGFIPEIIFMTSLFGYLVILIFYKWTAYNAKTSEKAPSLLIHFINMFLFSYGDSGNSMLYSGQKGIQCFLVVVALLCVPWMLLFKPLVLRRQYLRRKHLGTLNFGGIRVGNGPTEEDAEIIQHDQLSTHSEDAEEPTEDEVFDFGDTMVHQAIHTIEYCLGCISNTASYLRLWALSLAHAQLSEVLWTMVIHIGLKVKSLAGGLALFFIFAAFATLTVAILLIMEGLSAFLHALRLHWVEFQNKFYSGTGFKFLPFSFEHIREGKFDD

By IC50 is commonly meant the concentration that inhibits the measured activity by half. As to `COC(=O)c1[nH]c2cc(OC)c(OC)cc2c1-c1ccc(OC)cc1` [Example 1, 5,6-Dimethoxy-3-(4-methoxy-phenyl)-1H-indole-2-carboxylic acid methyl ester], the “antitumoral efficacy of combined administration with topotecan” value in experiment [1] (30 mg/kg p.o. with topotecan 1 or 2 mg/kg p.o., statistically significant with 1 mg topotecan) was “increased antitumoral efficacy”. In experiment [1] (administered alone, 30 mg/kg p.o., after 7 days of treatment, statistically significant), the tumor growth inhibition was found to be 43%. Also, the IC50 in experiment [2] is 644 nM.
